Laboratory results published in patent publication US9388139B2, “Derivatives of celeboxib, use thereof and preparation thereof” (German University, priority 2011, dated 2016).

Tests used:
[1] = system: human colorectal HT-29 tumor cell line; test: Tumor cell growth assay (Cell Titer Glo); format: cell-based; conditions: HT-29, 72 hours, read-out: IC50 μM against HT-29
[2] = molecular target: PDE2A (Homo sapiens (Human), UniProt O00408); test: PDE isozyme selectivity, IMAP assay; format: biochemical
Chain of PDE2A (O00408 whole entry, species assumed): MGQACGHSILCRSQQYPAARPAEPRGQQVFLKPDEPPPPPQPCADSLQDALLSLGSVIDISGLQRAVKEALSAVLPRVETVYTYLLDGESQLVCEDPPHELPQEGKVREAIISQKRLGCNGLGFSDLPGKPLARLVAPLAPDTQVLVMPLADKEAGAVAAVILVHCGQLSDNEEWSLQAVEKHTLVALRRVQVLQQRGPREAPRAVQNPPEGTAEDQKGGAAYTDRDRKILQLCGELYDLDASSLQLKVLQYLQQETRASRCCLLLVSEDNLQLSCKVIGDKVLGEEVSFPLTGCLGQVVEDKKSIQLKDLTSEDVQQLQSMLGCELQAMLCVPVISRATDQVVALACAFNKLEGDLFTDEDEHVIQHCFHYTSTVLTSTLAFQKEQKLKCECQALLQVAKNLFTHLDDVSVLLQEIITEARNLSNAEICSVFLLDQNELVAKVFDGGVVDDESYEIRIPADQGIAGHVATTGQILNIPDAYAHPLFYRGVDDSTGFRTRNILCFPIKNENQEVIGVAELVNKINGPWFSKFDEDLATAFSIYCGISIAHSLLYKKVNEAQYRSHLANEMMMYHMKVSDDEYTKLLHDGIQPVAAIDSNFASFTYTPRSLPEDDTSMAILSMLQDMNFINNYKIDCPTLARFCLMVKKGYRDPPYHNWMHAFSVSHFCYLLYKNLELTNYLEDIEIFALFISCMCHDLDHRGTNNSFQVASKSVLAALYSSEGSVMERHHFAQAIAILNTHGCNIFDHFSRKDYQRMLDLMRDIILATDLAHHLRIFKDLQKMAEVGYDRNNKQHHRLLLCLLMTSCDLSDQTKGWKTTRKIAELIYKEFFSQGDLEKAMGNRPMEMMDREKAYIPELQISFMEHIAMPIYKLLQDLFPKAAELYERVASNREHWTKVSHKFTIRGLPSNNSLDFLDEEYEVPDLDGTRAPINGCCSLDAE
Method: PDE activity was measured using the IMAP fluorescence polarization assay (Molecular Devices) in which binding of hydrolyzed cyclic nucleotide substrate to immobilized metal coordination complexes increases fluorescence polarization (FP). Tetramethylrhodamine (TAMRA)-cGMP and fluorescein-cAMP were used as substrates, each at final concentration of 50 nmol/L. The PDE assay was done according to the manufacturer's specifications using either whole cell lysates or recombinant enzymes.

[3] = system: HT29; test: Tumor cell growth inhibition panel; format: cell-based; conditions: Homo sapiens, HT-29, Colon
Method: Thus, compound 12 is able to show broad spectrum tumor cell growth inhibitory activity independent of cyclooxygenase inhibition, whereas PDE5 may be the major contributor to such activity.
The human tumor cell lines were purchased from the American Type Culture Collection (Mansassas, Va.) and maintained in RPMI-1640+2.0 g/L glucose pH 7.4+5% FBS+4 mM glutamine (complete growth medium), incubated at 37° C. in 5% CO2, and passaged at subconfluent density. The human fetal colon FHC cells were cultured in DMEM:F12 medium supplemented with 10% FBS, cholera toxin (10 ng/mL), 5 μg/ml transferrin, 5 μg/ml insulin, and 100 ng/ml hydrocortisone. The passage number was routinely limited to approximately 20 and morphology monitored with each passage, but no additional authentication of the cell lines was performed.
Cells were plated in 96-well microtiter plates at a density of 5,000 cells per well and allowed to adhere overnight prior to treatment. Cells were treated with a 2-log concentration range of either SS or SBA and incubated for an additional 72 hours. For siRNA assays, cells were transfected in OptiMEM media with 0.5% SureFECT transfection reagent and 200 nmol/L of either negative control or PDE5 siRNA and incubated at 37° C. for 24 h prior to treatment. At the end of the incubation period, relative cell viability was compared to vehicle controls using the Cell Titer Glo Assay (Promega, Madison Wis.), which measures viable cells based on ATP content, according to the manufacturer's specifications.

[4] = system: human breast MDA-MB-231 tumor cell line; test: Tumor cell growth assay (Cell Titer Glo); format: cell-based; conditions: MDA-MB-231, 72 hours, read-out: IC50 μM against MDA-MB-231

Q: What does the source list for `CC(C)(C)C1=NN(c2ccc(C(=O)O)cc2)C(c2ccc(Cl)cc2Cl)C1` (centres unmarked) [Compound 12, 4-(3-(tert-Butyl)-5-(2,4-dichlorophenyl)-4,5-dihydro-1H-pyrazol-1-yl)benzoic acid]?
A: IC50 [1]: 29.8 µM; IC50 ([2]; substrate cAMP): > 50 µM; IC50 ([2]; substrate cGMP): > 50 µM; IC50 [3]: 29.8 µM; IC50 [4]: > 50 µM
